The text below walks through data of ChEMBL document CHEMBL6103569, “Discovery of novel fluorine-containing parthenolide analogues as potential antitumor agents” (Eur J Med Chem, 2025).

Calls of active or inactive are those of the source. The calls are words filed in the database; no cut-off is given here.

The test system of one assay is PANC-1. Kind of assay: Antiproliferative activity against human PANC-1 cells assessed as inhibition of cell growth incubated for 72 hrs by MTT assay. In kind it is functional, cell-based. Background: Tetrazolium assays rely on reduction of a dye to a coloured formazan, in cell work by metabolically active cells.
For the next assay, the system named is Huh-7. Kind of assay: Antiproliferative activity against human Huh-7 cells assessed as inhibition of cell growth incubated for 72 hrs by MTT assay. In kind it is functional, cell-based.
Assay [1] can be described thus: Antiproliferative activity against human NCI-H820 cells assessed as inhibition of cell growth incubated for 72 hrs by MTT assay. In kind it is functional, cell-based.
Assay [2] relates to NCI-H820. Briefly: Antitumor activity against human NCI-H820 cells xenografted in BALB/c nude mouse model assessed as reduction in tumor weight at 30 mg/kg, po administered every 2 days. In kind it is functional, organism-based. The conditions noted are these: time 2.0 day.
Assay [3] relates to NCI-H820. Briefly: Antitumor activity against human NCI-H820 cells xenografted in BALB/c nude mouse model assessed as reduction in tumor volume at 30 mg/kg, po administered every 2 days. In kind it is functional, organism-based. The conditions noted are these: time 2.0 day. Background: In xenograft studies the graft and the host belong to different species.

The term IC50 denotes the concentration that gives 50% inhibition.

On to `C[C@@]12CC/C=C(/CC(F)(F)F)CC[C@H]3C(CN4CCC[C@H]4CO)C(=O)O[C@@H]3[C@@H]1O2` (some centres not stated), for which the IC50 turned out to be 4.57 µM in the assay on PANC-1 (Homo sapiens, PANC-1, 72 h); 3.67 µM in the assay on Huh-7 (Homo sapiens, Huh-7, 72 h); 4.53 µM in assay [1] (Homo sapiens, NCI-H820, 72 h).

As to `CN(C)CC1C(=O)O[C@H]2[C@H]1CC/C(CC(F)(F)F)=C\CC[C@@]1(C)O[C@@H]21` (some centres not stated) [listing 1 of 3 here], the IC50 in the assay on PANC-1 (panc-1) amounted to 4.38 µM; in the assay with Huh-7 (huh-7) it was 3.08 µM; in assay [1] (nci-h820) it was 4.38 µM.

Regarding `C[C@@]12CC/C=C(/CC(F)(F)F)CC[C@H]3C(CN4CC[C@@H](O)C4)C(=O)O[C@@H]3[C@@H]1O2` (some centres not stated), the IC50 is 4.88 µM in the assay with PANC-1 (Homo sapiens, PANC-1, 72 h); 3.34 µM with Huh-7 (Homo sapiens, Huh-7, 72 h); 4.62 µM in assay [1] (Homo sapiens, NCI-H820, 72 h).

For the compound `CCCN(C)CC1C(=O)O[C@H]2[C@H]1CC/C(CC(F)(F)F)=C\CC[C@@]1(C)O[C@@H]21` (some centres not stated), the IC50 in the assay on PANC-1 (Homo sapiens, PANC-1, 72 h) is 3.62 µM; in the assay with Huh-7 (Homo sapiens, Huh-7, 72 h), 3.13 µM; in assay [1] (Homo sapiens, NCI-H820, 72 h), 5.52 µM.

Turning to `C=C1C(=O)O[C@H]2[C@H]1CC/C(CSC#N)=C\CC[C@@]1(C)O[C@@H]21`, the IC50 with PANC-1 (Homo sapiens, PANC-1, 72 h) amounted to 1.35 µM; with Huh-7 (Homo sapiens, Huh-7, 72 h), 1.5 µM; in assay [1] (Homo sapiens, NCI-H820, 72 h) it was 2.04 µM.

Consider `CN(C)CC1C(=O)O[C@H]2[C@H]1CC/C(CC(F)(F)F)=C\CC[C@@]1(C)O[C@@H]21` (some centres not stated) [listing 2 of 3 here], for which the outcome with NCI-H820 [2] and with NCI-H820 [3] was Active.

As to `C[C@@]12CC/C=C(/CC(F)(F)F)CC[C@H]3C(CN4CCC(O)CC4)C(=O)O[C@@H]3[C@@H]1O2` (some centres not stated), the IC50 in the assay on PANC-1 (Homo sapiens, PANC-1, 72 h) was 5.79 µM; with Huh-7 (Homo sapiens, Huh-7, 72 h) it was 4.38 µM; in assay [1] (Homo sapiens, NCI-H820, 72 h) it was 6.32 µM.

As to `C=C1C(=O)O[C@H]2[C@H]1CC/C(CSC(F)(F)F)=C\CC[C@@]1(C)O[C@@H]21`, the IC50 in the assay with PANC-1 (Homo sapiens, PANC-1, 72 h) was 1.09 µM; in the assay with Huh-7 (Homo sapiens, Huh-7, 72 h), 0.99 µM; in assay [1] (Homo sapiens, NCI-H820, 72 h) it was 1.37 µM.

For `C[C@@]12CC/C=C(/CC(F)(F)F)CC[C@H]3C(CN4CCC[C@@H]4CO)C(=O)O[C@@H]3[C@@H]1O2` (some centres not stated), the IC50 was determined as 3.66 µM in the assay with PANC-1 (Homo sapiens, PANC-1, 72 h); 3.29 µM with Huh-7 (Homo sapiens, Huh-7, 72 h); 3.11 µM in assay [1] (Homo sapiens, NCI-H820, 72 h).

Take `CN(C)CC1C(=O)O[C@H]2[C@H]1CC/C(CC(F)(F)F)=C\CC[C@@]1(C)O[C@@H]21` (some centres not stated) [listing 3 of 3 here]: the IC50 with PANC-1 (Homo sapiens, PANC-1, 72 h) stood at 3.8 µM; in the assay with Huh-7 (Homo sapiens, Huh-7, 72 h), 2.64 µM; in assay [1] (Homo sapiens, NCI-H820, 72 h), 3.86 µM.

In the case of `C=C1C(=O)O[C@H]2[C@H]1CC/C(COC(F)F)=C\CC[C@@]1(C)O[C@@H]21`, the IC50 was 3.31 µM in the assay on PANC-1 (Homo sapiens, PANC-1, 72 h); 3.18 µM with Huh-7 (Homo sapiens, Huh-7, 72 h); 4.32 µM in assay [1] (Homo sapiens, NCI-H820, 72 h).
